Experiments:
MRGPRX2 [1] = target: T1, MRGPRX2 (Homo sapiens, UniProt Q96LB1); assay: FcεR1/MRGPRX2 dual-stimulation β-hexosaminidase release in freshly isolated human skin mast cells; assay type: cell-based; parameters: human mast cells expressing endogenous MRGPRX2; endogenous in cells; […]; settings: Substance P plus anti-IgE (10 μg/mL); n = 3 donors
T1 sequence (Q96LB1 1-330): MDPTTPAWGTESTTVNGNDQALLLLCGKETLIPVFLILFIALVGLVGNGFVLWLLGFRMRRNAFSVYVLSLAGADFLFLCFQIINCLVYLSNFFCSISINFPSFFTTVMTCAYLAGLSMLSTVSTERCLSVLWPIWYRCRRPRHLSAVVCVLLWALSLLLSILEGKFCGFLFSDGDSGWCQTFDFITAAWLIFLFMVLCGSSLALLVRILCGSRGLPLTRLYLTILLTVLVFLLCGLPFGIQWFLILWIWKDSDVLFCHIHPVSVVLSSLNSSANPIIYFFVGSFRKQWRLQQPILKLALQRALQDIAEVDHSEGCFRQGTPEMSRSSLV
Protocol: Tissue was processed, removing adipose and cutting into small segments. Epidermis was removed after incubation with dispase II (2 mg/mL; Sigma-Aldrich) [100 mL/50-cm^2 tissue, base buffer; Dulbecco’s Phosphate-buffered Saline (D-PBS) (Gibco, supplemented with Ca^2+/Mg^2+), amphotericin B (2.5 μg/mL), penicillin (100 units/mL)/streptomycin (100 μg/mL) (Sigma-Aldrich)] for 37°C for 2–4 h followed by 4°C overnight. The remaining dermis was homogenized into a uniform mass and digested with an enzyme cocktail [collagenase IV (10 mg/mL; Gibco), hyaluronidase I-S (5 mg/mL; Sigma), DNAse I (10 μg/ml; Roche)] in base buffer (supplemented with 10% FBS) in a shaking incubator at 37°C for 90 min. […]
For human primary skin mast cell degranulation experiments, both β-hexosaminidase and tryptase were measured. […] Plates were centrifuged, with supernatants collected and lysates generated [cell pellets lysed in 0.1% Tx100 (Sigma), in assay buffer], and then stored at −80°C for later quantification. β-Hexosaminidase activity assay was performed as already described. For tryptase quantification: The amount of total tryptase (α and β tryptase) was quantified using the ImmunoCap Tryptase Test ran on either a Phadia 100 or 250 Immunoassay Analyzer as per the manufacturer’s protocol. […]

MRGPRX2 [2] = target: T1, MRGPRX2; assay: Calcium imaging of peritoneal mast cells isolated from human MRGPRX2 KI mice; assay type: cell-based; settings: 100 nM antagonist; Cpd 48/80 1 μg/mL; n ≥ 4
Protocol: Mouse peritoneal mast cells were purified and imaged as previously described ([4]). Mast cells were resuspended at 5 × 10^5 to 1 × 10^6 cells/mL in DMEM with 10% FBS and recombinant mouse SCF (25 ng/mL) and plated onto glass cover slips coated with fibronectin (30 µg/mL). For imaging, after 2 h of incubation at 37°C, 5% CO2, mast cells were loaded with Fluo-4 along with 0.02% Pluronic F-127 for 30 min at room temperature, washed three times in calcium imaging buffer (CIB), and used immediately for imaging. Cells were used within 2 h of loading. Cells were identified as responding if the [Ca^2+] rose by at least 50% for >10 s.
Figure 6 Oral treatment with the potent and selective MRGPRX2 antagonist, Compound B (3 mg/kg), blocks Cpd 48/80–induced itch response using human MRGPRX2 knock-in mice. […] Average ± SD blood-free concentration of antagonist measured at end of “itch” observation period was 19 ± 16 nM Compound B.

For `C[C@@H](C(=O)Nc1cnc(Oc2ccc(F)cc2F)cn1)N1CCC(F)(F)[C@@H](c2cc[n+]([O-])cc2)C1` [Compound B], the “Effect on MRGPRX2-dependent augmentation of FcεR1/MRGPRX2 dual-stimulation β-hexosaminidase release” value (MRGPRX2 [1]) was “selectively inhibits” and the “Effect on Cpd 48/80-mediated activation of peritoneal mast cells” value (MRGPRX2 [2]) was “completely antagonize”.
